In publication PMC8578635 (Nature Communications, 2021):

Assays:
TOP2A [1] = biological target: T1, TOP2A (Homo sapiens, UniProt P11388); test: kDNA decatenation and pBR322 relaxation assays with purified human topoisomerase II; band depletion in CHP-134 cells; format: biochemical
TOP2A [2] = biological target: T1, TOP2A; test: kDNA decatenation and pBR322 relaxation assays with purified human topoisomerase II; supported by band depletion and RADAR TOP2cc assays in cells; format: biochemical
[3] = biological target: topoisomerase II beta (TOP2B) (Homo sapiens, UniProt Q02880); test: kDNA decatenation and pBR322 relaxation assays with purified human topoisomerase II; format: biochemical
TOP2A [4] = biological target: T1, TOP2A; test: as above

T1 sequence (P11388 whole entry): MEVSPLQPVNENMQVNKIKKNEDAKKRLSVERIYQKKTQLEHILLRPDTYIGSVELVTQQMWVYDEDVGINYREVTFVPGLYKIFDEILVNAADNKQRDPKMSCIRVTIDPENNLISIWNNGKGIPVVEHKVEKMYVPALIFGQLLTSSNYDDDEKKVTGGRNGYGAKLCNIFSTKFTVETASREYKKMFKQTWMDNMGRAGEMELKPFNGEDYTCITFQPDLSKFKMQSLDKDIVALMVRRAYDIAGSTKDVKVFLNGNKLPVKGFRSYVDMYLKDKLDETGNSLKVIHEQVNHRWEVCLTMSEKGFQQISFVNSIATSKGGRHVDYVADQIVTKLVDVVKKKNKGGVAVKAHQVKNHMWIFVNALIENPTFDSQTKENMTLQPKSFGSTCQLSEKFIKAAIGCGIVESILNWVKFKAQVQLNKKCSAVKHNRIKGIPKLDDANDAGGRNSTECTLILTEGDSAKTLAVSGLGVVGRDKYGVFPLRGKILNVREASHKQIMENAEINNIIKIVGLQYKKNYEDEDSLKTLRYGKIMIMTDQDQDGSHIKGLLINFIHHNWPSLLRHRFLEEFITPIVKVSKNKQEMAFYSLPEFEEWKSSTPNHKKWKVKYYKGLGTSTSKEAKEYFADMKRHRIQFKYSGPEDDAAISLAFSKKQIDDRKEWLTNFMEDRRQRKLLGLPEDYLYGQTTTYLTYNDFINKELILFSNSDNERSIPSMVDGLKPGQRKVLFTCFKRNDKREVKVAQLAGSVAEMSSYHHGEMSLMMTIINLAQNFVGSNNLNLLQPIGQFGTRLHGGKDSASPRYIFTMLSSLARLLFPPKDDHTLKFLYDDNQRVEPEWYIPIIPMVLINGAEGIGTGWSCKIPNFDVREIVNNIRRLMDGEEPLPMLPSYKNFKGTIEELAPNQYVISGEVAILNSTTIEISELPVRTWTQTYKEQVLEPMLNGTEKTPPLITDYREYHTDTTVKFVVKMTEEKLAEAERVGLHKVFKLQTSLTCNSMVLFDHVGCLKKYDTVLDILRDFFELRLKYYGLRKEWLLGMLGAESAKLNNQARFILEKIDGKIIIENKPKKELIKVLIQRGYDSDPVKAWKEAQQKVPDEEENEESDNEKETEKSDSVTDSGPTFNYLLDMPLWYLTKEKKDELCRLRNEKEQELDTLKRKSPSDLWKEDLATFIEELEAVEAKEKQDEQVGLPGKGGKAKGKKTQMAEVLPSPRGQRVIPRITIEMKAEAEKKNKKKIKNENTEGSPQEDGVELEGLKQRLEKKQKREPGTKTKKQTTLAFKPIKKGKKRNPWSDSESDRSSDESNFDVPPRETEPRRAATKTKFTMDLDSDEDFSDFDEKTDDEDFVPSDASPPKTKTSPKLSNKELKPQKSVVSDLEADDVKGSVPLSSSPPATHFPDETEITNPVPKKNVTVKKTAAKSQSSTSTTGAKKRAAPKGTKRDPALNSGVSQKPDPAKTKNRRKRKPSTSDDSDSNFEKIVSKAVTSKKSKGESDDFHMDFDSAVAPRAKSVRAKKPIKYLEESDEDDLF
topoisomerase II beta (TOP2B), sequence (Q02880 2-1626): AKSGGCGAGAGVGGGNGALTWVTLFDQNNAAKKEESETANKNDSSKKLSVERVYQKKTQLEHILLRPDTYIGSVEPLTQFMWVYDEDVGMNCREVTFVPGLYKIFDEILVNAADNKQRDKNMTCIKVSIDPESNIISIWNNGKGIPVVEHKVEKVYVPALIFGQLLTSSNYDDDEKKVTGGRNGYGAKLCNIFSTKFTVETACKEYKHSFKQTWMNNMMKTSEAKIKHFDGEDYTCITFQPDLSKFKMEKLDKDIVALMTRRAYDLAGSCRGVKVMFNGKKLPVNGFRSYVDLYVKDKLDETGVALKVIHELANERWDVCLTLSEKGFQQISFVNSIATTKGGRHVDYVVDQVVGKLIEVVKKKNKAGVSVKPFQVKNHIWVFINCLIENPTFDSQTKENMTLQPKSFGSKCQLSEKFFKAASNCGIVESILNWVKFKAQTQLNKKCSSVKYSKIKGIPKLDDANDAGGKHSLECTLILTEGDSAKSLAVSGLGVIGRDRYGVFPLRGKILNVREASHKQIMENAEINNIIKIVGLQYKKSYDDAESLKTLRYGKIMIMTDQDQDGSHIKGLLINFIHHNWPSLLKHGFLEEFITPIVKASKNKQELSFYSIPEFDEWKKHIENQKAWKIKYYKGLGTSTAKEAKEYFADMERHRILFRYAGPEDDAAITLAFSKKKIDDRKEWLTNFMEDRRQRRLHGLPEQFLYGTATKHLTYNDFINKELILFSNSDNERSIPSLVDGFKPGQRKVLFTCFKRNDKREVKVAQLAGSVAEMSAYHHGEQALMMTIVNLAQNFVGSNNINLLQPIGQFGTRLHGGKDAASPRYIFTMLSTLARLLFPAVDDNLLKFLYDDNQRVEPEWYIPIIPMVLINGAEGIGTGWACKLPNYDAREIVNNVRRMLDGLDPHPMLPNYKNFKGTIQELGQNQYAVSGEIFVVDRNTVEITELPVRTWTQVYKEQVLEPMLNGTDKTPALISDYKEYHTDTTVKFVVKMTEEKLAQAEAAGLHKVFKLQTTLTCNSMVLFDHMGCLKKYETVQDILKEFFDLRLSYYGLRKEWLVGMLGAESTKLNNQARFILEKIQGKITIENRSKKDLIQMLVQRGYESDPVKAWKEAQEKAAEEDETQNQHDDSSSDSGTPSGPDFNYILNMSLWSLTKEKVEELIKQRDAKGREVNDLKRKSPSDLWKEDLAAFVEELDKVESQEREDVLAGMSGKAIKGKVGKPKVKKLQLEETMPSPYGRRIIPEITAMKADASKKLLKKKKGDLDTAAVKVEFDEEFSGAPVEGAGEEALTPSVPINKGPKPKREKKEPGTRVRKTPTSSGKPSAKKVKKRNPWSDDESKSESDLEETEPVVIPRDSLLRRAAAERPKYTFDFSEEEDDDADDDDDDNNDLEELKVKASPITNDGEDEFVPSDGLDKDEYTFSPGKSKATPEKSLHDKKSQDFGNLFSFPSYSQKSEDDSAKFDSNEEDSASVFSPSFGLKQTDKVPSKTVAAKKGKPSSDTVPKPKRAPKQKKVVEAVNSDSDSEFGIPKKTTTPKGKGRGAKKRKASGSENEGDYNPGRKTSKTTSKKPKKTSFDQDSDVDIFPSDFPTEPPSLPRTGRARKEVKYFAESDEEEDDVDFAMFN

COc1cccc2c1C(=O)c1c(O)c3c(c(O)c1C2=O)C[C@@](O)(C(=O)CO)C[C@@H]3O[C@H]1C[C@H](N)[C@H](O)[C@H](C)O1 [doxorubicin]
kDNA decatenation and pBR322 relaxation assays with purified human topoisomerase (TOP2A [1]): Etoposide and doxorubicin had similar activity against both paralogs.

Cc1cnc(CNC(=O)c2c(=O)c3ccc(N4CCCN(C)CC4)nc3n3c2sc2ccccc23)cn1 [CX-5461]
kDNA decatenation and pBR322 relaxation assays with purified human topoisomerase (TOP2A [2]): CX-5461 inhibited the activity of both TOP2A and TOP2B—strikingly at concentrations substantially lower than etoposide

COc1cc([C@@H]2c3cc4c(cc3[C@@H](O[C@@H]3O[C@@H]5CO[C@@H](C)O[C@H]5[C@H](O)[C@H]3O)[C@H]3COC(=O)[C@H]23)OCO4)cc(OC)c1O [etoposide]
kDNA decatenation and pBR322 relaxation assays with purified human topoisomerase [3]: Etoposide and doxorubicin had similar activity against both paralogs. | kDNA decatenation and pBR322 relaxation assays with purified human topoisomerase (TOP2A [4]): Etoposide and doxorubicin had similar activity against both paralogs.
